Measured values taken from patent publication US10351566B2, “Therapeutic compounds for pain and synthesis thereof” (priority 2015, dated 2019).
Values joined by “and” are separate entries in the source; they are usually repeats but may differ in a detail not shown here. Identical values can stand only once. Like-named read-outs stand apart in the source and are kept apart here.

Experiments:
hERG = hERG (Homo sapiens, UniProt Q12809); assay: hERG in vitro safety pharmacology
Protocol: The IC50 for hERG was greater than 10 μM. A generally accepted safety margin against hERG and other important cardiac targets is ≥30 (a safety margin is calculated as: IC50/Cmax, free or EC50/Cmax, free).

[1] = tested on: CCI-induced neuropathic pain; assay: Chronic constriction injury (CCI) model in mice, SC route; type: in vivo; conditions: for Dose of maximum activity / Duration of activity at maximum effect / Level of activity (% of maximum effect-baseline) / Peak of activity (T): CCl model, mice
Protocol: Study outline in brief: The sciatic nerve of mice was exposed under anesthesia, and 3 loose ligations were placed around the nerve. Animals were allowed to recover for 3 days. Tactile allodynia (von Frey testing) and thermal (hot at 50±1° C. and cold at 2±1° C.) hyperalgesia were then assessed. Animals that experienced tactile allodynia were assigned to their treatment groups (vehicle, gabapentin and Formula 1 at different doses). Animals were subsequently treated daily for a period of 5 days with either vehicle or Formula 1 at different doses. Gabapentin at a dose of 150 mg/kg was dosed only on days of testing (day 3 and day 7).

in vivo [2] = conditions: mice; for half-life: read-out: terminal half-life (converted)
Protocol: Pharmacokinetic studies of MD-354 were performed in mice following 50 mg/kg oral and 5 mg/kg intravenous administration (FIG. 17).
The plasma concentration decreased in a multi-phasic manner to 0.76 ng/mL at 8 hours post-dose.

in vivo [3] = assay: in vivo; parameters: species or system mice; conditions: for HL_Lambda_z / Cl_F_obs / Vz_F_obs / AUC(0-t) / Cmax / Tmax / AUC(0-inf): Mean; for Kp / AUC(0-t) / Cmax / Tmax / AUC(0-inf): mouse, in vivo; for Kp: po, 50 mg/kg, mice, oral 50 mg/kg, 5 min to 8 h; for AUC(0-inf): read-out: AUCINF_obs
Protocol: Tissue distribution studies were conducted by administration of the compound to mice at a dose of 50 mg/kg orally and intravenously. Plasma and tissue samples were collected at various times from 5 min to 8 h. The tissue-to-plasma concentration ratios measured after oral dosing were: 0.6 (range: 0.3-1.1, brain), 3.2 (range: 1.9-5.0, spinal cord), 6.5 (range: 0.9-10.3, liver), 24.0 (range: 5.1-59.9, lung), 6.6 (range: 1.2-14.9, heart), 16.9 (range: 4.3-26.8, kidney), 77.5 (range: 11.5-341, spleen), 29.2 (range: 6.3-50.2, cecum), 67.4 (range: 11.6-326, colon), 5.2 (range: 2.1-8.0, testes). The concentration-time profiles of the compound in these tissues generally followed those in plasma. The tissue-to-plasma concentration ratios in these selected tissues are generally within the normal ranges of the marketed drugs.
There are complex equilibria between the compound concentrations in blood, CSF and spinal cord. A high concentration in the CSF would yield a large concentration in the spinal cord. Since Formula 1 is a Pgp substrate and highly tissue-bound, its higher concentrations in the spinal cord tissue compared to the brain tissue are not surprising (Table 2).

[4] = type: in vivo; conditions: mice, 10 mg/kg IP
Protocol: Mice received a 10 mg/kg IP dose of Formula 1. The animals were placed in the open field apparatus after 30 minutes (box of 0.5×0.5×0.5 m length, width and height) for a period of 5 min. The animals' walking distance and speed were evaluated and compared to the vehicle-treated group.

[5] = oral, two additional sets of data, listed as 354
[6] = Brain, second block of the table, route not given
[7] = Plasma, second block of the table, route not given
[8] = Spinal Cord, second block of the table, route not given
[9] = 30 minutes after dosing, 5 min in open field

Chain of hERG (Q12809 whole entry): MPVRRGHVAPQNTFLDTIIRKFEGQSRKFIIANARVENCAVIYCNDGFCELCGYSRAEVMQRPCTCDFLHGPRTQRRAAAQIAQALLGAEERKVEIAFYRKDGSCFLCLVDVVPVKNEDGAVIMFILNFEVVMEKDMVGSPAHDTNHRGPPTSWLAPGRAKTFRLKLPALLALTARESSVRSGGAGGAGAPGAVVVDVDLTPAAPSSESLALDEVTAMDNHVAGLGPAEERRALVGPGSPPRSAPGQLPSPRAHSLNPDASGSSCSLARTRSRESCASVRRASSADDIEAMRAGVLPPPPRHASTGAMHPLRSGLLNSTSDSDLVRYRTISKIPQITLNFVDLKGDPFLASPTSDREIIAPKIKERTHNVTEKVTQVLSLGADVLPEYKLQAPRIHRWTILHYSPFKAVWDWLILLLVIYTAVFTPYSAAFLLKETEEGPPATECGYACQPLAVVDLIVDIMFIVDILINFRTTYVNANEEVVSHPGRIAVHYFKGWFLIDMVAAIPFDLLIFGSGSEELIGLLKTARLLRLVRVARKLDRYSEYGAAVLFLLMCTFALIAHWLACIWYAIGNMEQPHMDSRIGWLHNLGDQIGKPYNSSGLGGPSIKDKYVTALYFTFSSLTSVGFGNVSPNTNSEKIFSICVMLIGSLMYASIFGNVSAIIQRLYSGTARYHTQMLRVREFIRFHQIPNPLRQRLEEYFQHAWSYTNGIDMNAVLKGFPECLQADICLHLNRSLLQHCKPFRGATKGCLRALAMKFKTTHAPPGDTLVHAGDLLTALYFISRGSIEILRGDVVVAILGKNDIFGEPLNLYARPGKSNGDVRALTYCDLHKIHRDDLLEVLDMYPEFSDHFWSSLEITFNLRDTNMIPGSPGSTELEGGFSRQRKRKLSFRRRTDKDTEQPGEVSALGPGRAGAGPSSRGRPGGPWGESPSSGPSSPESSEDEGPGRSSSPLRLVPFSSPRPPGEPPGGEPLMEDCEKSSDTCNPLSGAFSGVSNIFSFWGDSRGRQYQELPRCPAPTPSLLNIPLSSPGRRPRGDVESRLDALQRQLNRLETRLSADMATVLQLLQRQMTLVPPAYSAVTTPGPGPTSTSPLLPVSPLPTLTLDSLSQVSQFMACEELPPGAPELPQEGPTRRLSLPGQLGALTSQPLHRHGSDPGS

## CC(C)(C)C(=O)O[C@@H]1[C@@H]2[C@H]3C[C@H](C[C@@H]1N3Cc1ccccn1)CN2C(=O)CC(F)(F)F (relative stereo) [Formula 1, (2S*,3S*,3aS*,6R*,7aR*)-1-(pyridin-2-ylmethyl)-4-(3,3,3-trifluoropropanoyl)octahydro-1H-2,6-methanopyrrolo[3,2-b]pyridin-3-yl pivalate]
hERG
  IC50: > 10 µM
[1]; CCI mice, SC
  effect on response time in the hotplate test: not significant
[1]; CCI mice, SC 30 mg/kg and 60 mg/kg
  response time to cold stimuli: increased response time to cold stimuli
[1]; CCI mice, SC 60 mg/kg, daily repeated treatment
  withdrawal force (von Frey): significant increase in the withdrawal force
[1]; CCI mice, SC, following a single dose
  time of peak activity on cold response: 2 h
[1]; CCI mice, SC, post-dosing following repeated daily dosing
  time of peak activity on cold response: 2 h
[1]; CCI mice, SC, repeated dosing
  tolerance effect: No tolerance effect was observed
[1]; SC, first SC line
  Dose of maximum activity: 60 mg/kg
  Duration of activity at maximum effect: >4 H
  Level of activity (% of maximum effect-baseline): 43%
  Peak of activity (T): 2 H
[1]; SC, second SC line (readout not given)
  Level of activity (% of maximum effect-baseline): 100%
[1]; SC, second SC line
  Dose of maximum activity: 30 mg/kg
  Duration of activity at maximum effect: >4 H
  Peak of activity (T): 2 H
In vivo [2]; intravenous 5 mg/kg
  plasma concentration at 8 hours post-dose: 6.74 ng/mL
In vivo [2]; oral 50 mg/kg
  plasma concentration at 8 hours post-dose: 0.76 ng/mL
  time to peak plasma concentration: ≤ 5 min
In vivo [2]; oral, two additional sets of data
  time to peak plasma concentration: ≤ 5 min
In vivo [2]; [5]
  oral bioavailability: 14.7%
  peak plasma concentration: 3157 ng/mL and 3001 ng/mL
  plasma concentration at 8 hours post-administration: 8.4 ng/mL and 11.4 ng/mL
  terminal half-life: 75 min
In vivo [2]; mouse, in vivo, iv, 5 mg/kg, intravenous 5 mg/kg, excluding the 8 h time point
  half-life: 21 min
In vivo [2]; mouse, in vivo, oral 50 mg/kg vs intravenous 5 mg/kg, read-out: absolute oral bioavailability
  bioavailability: 10.5%
In vivo [2]; mouse, in vivo, po, 50 mg/kg, oral 50 mg/kg
  half-life: 51 min
In vivo [2]; mouse, in vivo, po, oral, two additional sets of data, read-out: oral bioavailability
  bioavailability: 14.1%
In vivo [2]; mouse, in vivo, po, oral, two additional sets of data
  half-life: 71.4 min
In vivo [2]; mouse, in vivo, intravenous 5 mg/kg, read-out: initial plasma concentration (C0)
  C0: 7940 ng/mL
In vivo [2]; mouse, in vivo, intravenous 5 mg/kg, read-out: steady-state volume of distribution (Vss)
  Vd: 1.08 L/kg
In vivo [2]; mouse, in vivo, intravenous 5 mg/kg, read-out: systemic plasma clearance (CLp)
  clearance: 46.1 mL/min/kg
In vivo [2]; mouse, in vivo, oral 50 mg/kg, read-out: peak plasma concentration (Cmax)
  Cmax: 1930 ng/mL
In vivo [3]; [6]
  HL_Lambda_z: 0.74 h
  AUC(0-t): 2770 ng·h/mL
  Cmax: 6750 ng/mL
  Tmax: 4.8 min
In vivo [3]; Plasma, SC
  Cl_F_obs: 120.292 mL/min/kg
  HL_Lambda_z: 0.37 h
  Vz_F_obs: 3.84783 L/kg
  Tmax: 15 min
  AUC(0-inf): 1390 ng·h/mL
In vivo [3]; [7]
  Cl_F_obs: 672.2167 mL/min/kg
  HL_Lambda_z: 1.20 h
  Vz_F_obs: 72.1615 L/kg
  AUC(0-t): 2590 ng·h/mL
  Cmax: 3080 ng/mL
  AUC(0-inf): 2610 ng·h/mL
In vivo [3]; Spinal Cord, SC
  HL_Lambda_z: 0.53 h
In vivo [3]; [8]
  HL_Lambda_z: 1.56 h
  AUC(0-t): 15500 ng·h/mL
  Cmax: 30000 ng/mL
In vivo [3]; male, read-out: tissue-to-plasma concentration ratio, testes
  Kp: 5.2
In vivo [3]; male, read-out: tissue-to-plasma concentration ratio, testes, range
  Kp: 2.1 to 8
In vivo [3]; read-out: tissue-to-plasma concentration ratio, brain
  Kp: 0.6
In vivo [3]; read-out: tissue-to-plasma concentration ratio, brain, range
  Kp: 0.3 to 1.1
In vivo [3]; read-out: tissue-to-plasma concentration ratio, cecum
  Kp: 29.2
In vivo [3]; read-out: tissue-to-plasma concentration ratio, cecum, range
  Kp: 6.3 to 50.2
In vivo [3]; read-out: tissue-to-plasma concentration ratio, colon
  Kp: 67.4
In vivo [3]; read-out: tissue-to-plasma concentration ratio, colon, range
  Kp: 11.6 to 326
In vivo [3]; read-out: tissue-to-plasma concentration ratio, heart
  Kp: 6.6
In vivo [3]; read-out: tissue-to-plasma concentration ratio, heart, range
  Kp: 1.2 to 14.9
In vivo [3]; read-out: tissue-to-plasma concentration ratio, kidney
  Kp: 16.9
In vivo [3]; read-out: tissue-to-plasma concentration ratio, kidney, range
  Kp: 4.3 to 26.8
In vivo [3]; read-out: tissue-to-plasma concentration ratio, liver
  Kp: 6.5
In vivo [3]; read-out: tissue-to-plasma concentration ratio, liver, range
  Kp: 0.9 to 10.3
In vivo [3]; read-out: tissue-to-plasma concentration ratio, lung
  Kp: 24
In vivo [3]; read-out: tissue-to-plasma concentration ratio, lung, range
  Kp: 5.1 to 59.9
In vivo [3]; read-out: tissue-to-plasma concentration ratio, spinal cord
  Kp: 3.2
In vivo [3]; read-out: tissue-to-plasma concentration ratio, spinal cord, range
  Kp: 1.9 to 5
In vivo [3]; read-out: tissue-to-plasma concentration ratio, spleen
  Kp: 77.5
In vivo [3]; read-out: tissue-to-plasma concentration ratio, spleen, range
  Kp: 11.5 to 341
In vivo [3]; sc, Brain
  AUC(0-t): 790 ng·h/mL
  Cmax: 1380 ng/mL
In vivo [3]; sc, Plasma
  AUC(0-t): 1380 ng·h/mL
  Cmax: 1900 ng/mL
In vivo [3]; sc, Spinal Cord
  AUC(0-t): 6210 ng·h/mL
  Cmax: 11900 ng/mL
[4]
  walking distance and speed vs. vehicle-treated group: No difference was found
[4]; [9]
  Distance: 1.94 ± 0.89 m
  Time spent in the center of the field: 34.82 ± 23.53 s
